The values that follow are results of earlier work, collected in PubChem BioAssay AID1259409 (Chemical Carcinogenesis Research Information System (CCRIS), 2018).

The data set concerns rodent chemically induced tumor inhibition, incidence and multiplicity. The data set can be described thus: CCRIS tumor inhibitor studies. The conditions noted are these: for tumour outcome (control, treated, inhibition, significance): Species: RAT.

Regarding `C=CCSSCC=C`, the “tumour outcome (control, treated, inhibition, significance)” value (Carcinogen: 2-AMINO-1-METHYL-6-PHENYLIMIDAZO[4,5-B]PYRIDINE [105650-23-5], Dose [Inhibitor]: 200 PPM IN DIET FOR 4 WK BEGINNING WK PRIOR TO FIRST CARCINOGEN DOSE (STUDY DURATION: 25 WK), Route [Inhibitor]: ORAL, Strain/Sex: SPRAGUE-DAWLEY/FEMALE, Target Tissue: Type of Lesion: MAMMARY GLAND: FIBROADENOMA OR DUCTAL CARCINOMA, Dose [Carcinogen]: 85 MG/KG BW 2X/WK FOR 4 WK (STUDY DURATION: 25 WK), Promoter: NONE) is 68%, 52%, 24%, not significant; the “tumour outcome (control, treated, inhibition, significance)” value (Carcinogen: 2-AMINO-1-METHYL-6-PHENYLIMIDAZO[4,5-B]PYRIDINE, 105650-23-5, Dose [Inhibitor]: 0, 200 PPM IN HIGH FAT DIET FOR 4 WK BEGINNING 1 WK PRIOR TO CARCINOGEN TREATMENT (STUDY DURATION: 25 WK), Route [Inhibitor]: ORAL, Strain/Sex: SPRAGUE-DAWLEY/FEMALE, Target Tissue: Type of Lesion: MAMMARY GLAND: CARCINOMA, Dose [Carcinogen]: 85 MG/KG BW IN CORN OIL 8 TIMES IN 10 D, Promoter: NONE USED) is recorded as 21/31 (68%), 16/31 (52%), 24%, not calculated; the “tumour outcome (control, treated, inhibition, significance)” value (Carcinogen: 2-AMINO-1-METHYL-6-PHENYLIMIDAZO[4,5-B]PYRIDINE, 105650-23-5, Dose [Inhibitor]: 0, 200 PPM IN HIGH FAT DIET FOR 4 WK BEGINNING 1 WK PRIOR TO CARCINOGEN TREATMENT (STUDY DURATION: 25 WK), Route [Inhibitor]: ORAL, Strain/Sex: SPRAGUE-DAWLEY/FEMALE, Target Tissue: Type of Lesion: MAMMARY GLAND: FIBROADENOMA, Dose [Carcinogen]: 85 MG/KG BW IN CORN OIL 8 TIMES IN 10 D, Promoter: NONE USED) is given as 3/31 (10%), 0/31 (0%), 100%, not calculated; the “tumour outcome (control, treated, inhibition, significance)” value (Carcinogen: 7,12-DIMETHYLBENZ[A]ANTHRACENE, 57-97-6, Dose [Inhibitor]: 0, 1.8 MMOL/KG BW IN CORN OIL 96, 48 AND 24 HR PRIOR TO CARCINOGEN TREATMENT (STUDY DURATION: 25 WK), Route [Inhibitor]: GAVAGE, Strain/Sex: SPRAGUE-DAWLEY/FEMALE, Target Tissue: Type of Lesion: MAMMARY GLAND: ADENOCARCINOMA, Dose [Carcinogen]: 10 MG ONCE, Promoter: NONE USED) is given as 92%, 36%, 61%, p<0.05; the “tumour outcome (control, treated, inhibition, significance)” value (Carcinogen: AZOXYMETHANE, 25843-45-2, Dose [Inhibitor]: 0, 100 PPM IN DIET BEGINNING 2 WK PRIOR TO CARCINOGEN TREATMENT AND CONTINUING FOR DURATION OF STUDY (STUDY DURATION: 56, Route [Inhibitor]: ORAL, Strain/Sex: F344/MALE, Target Tissue: Type of Lesion: COLON: INVASIVE ADENOCARCINOMA, Dose [Carcinogen]: 15 MG/KG 1/WK FOR 2 WK, Promoter: NONE USED) is recorded as 34%, 11%, 68%, p<0.05; the “tumour outcome (control, treated, inhibition, significance)” value (Carcinogen: AZOXYMETHANE, 25843-45-2, Dose [Inhibitor]: 0, 100 PPM IN DIET BEGINNING 2 WK PRIOR TO CARCINOGEN TREATMENT AND CONTINUING FOR DURATION OF STUDY (STUDY DURATION: 56, Route [Inhibitor]: ORAL, Strain/Sex: F344/MALE, Target Tissue: Type of Lesion: COLON: NONINVASIVE ADENOCARCINOMA, Dose [Carcinogen]: 15 MG/KG 1/WK FOR 2 WK, Promoter: NONE USED) is given as 53%, 53%, 0%, not significant. The “tumour outcome (control, treated, inhibition, significance)” value is, setting by setting: (Carcinogen: AZOXYMETHANE, 25843-45-2, Dose [Inhibitor]: 0, 200 PPM IN DIET BEGINNING 2 WK PRIOR TO CARCINOGEN TREATMENT AND CONTINUING FOR DURATION OF STUDY (STUDY DURATION: 56, Route [Inhibitor]: ORAL, Strain/Sex: F344/MALE, Target Tissue: Type of Lesion: COLON: INVASIVE ADENOCARCINOMA, Dose [Carcinogen]: 15 MG/KG 1/WK FOR 2 WK, Promoter: NONE USED) 34%, 6%, 82%, p<0.01; (Carcinogen: AZOXYMETHANE, 25843-45-2, Dose [Inhibitor]: 0, 200 PPM IN DIET BEGINNING 2 WK PRIOR TO CARCINOGEN TREATMENT AND CONTINUING FOR DURATION OF STUDY (STUDY DURATION: 56, Route [Inhibitor]: ORAL, Strain/Sex: F344/MALE, Target Tissue: Type of Lesion: COLON: NONINVASIVE ADENOCARCINOMA, Dose [Carcinogen]: 15 MG/KG 1/WK FOR 2 WK, Promoter: NONE USED) 53%, 58%, -9%, not significant; (Carcinogen: DIETHYLNITROSAMINE, 55-18-5, N-METHYL-N-NITROSOUREA, 684-93-5, N,N'-DIMETHYLHYDRAZINE, 540-73-8, N-BUTYL-N-(4-HYDR, Carcinogen: DIETHYLNITROSAMINE, 55-18-5, N-METHYL-N-NITROSOUREA, 684-93-5, N,N'-DIMETHYLHYDRAZINE, 540-73-8, N-BUTYL-N-(4-HYDR, Dose [Inhibitor]: 0, 50 MG/KG BW IN CORN OIL 3/WK FOR 6 WK BEGINNING POST CARCINOGEN TREATMENT (STUDY DURATION: 28 WK), Route [Inhibitor]: GAVAGE, Strain/Sex: F344/MALE, Target Tissue: Type of Lesion: KIDNEY: RENAL CELL ADENOMA, Dose [Carcinogen]: 100 MG/KG BW DEN ONCE, 20 MG/KG BW MNU ONCE ON D 2, 5, 8 AND 11, 40 MG/KG BW DMH ON D 14, 17, 20 AND 23, 0.05% BHBN I, Dose [Carcinogen]: 100 MG/KG BW DEN ONCE, 20 MG/KG BW MNU ONCE ON D 2, 5, 8 AND 11, 40 MG/KG BW DMH ON D 14, 17, 20 AND 23, 0.05% BHBN I, Promoter: NONE USED) 4/20 (20%), 0/19 (0%), 100%, not calculated; (Carcinogen: DIETHYLNITROSAMINE, 55-18-5, N-METHYL-N-NITROSOUREA, 684-93-5, N,N'-DIMETHYLHYDRAZINE, 540-73-8, N-BUTYL-N-(4-HYDR, Carcinogen: DIETHYLNITROSAMINE, 55-18-5, N-METHYL-N-NITROSOUREA, 684-93-5, N,N'-DIMETHYLHYDRAZINE, 540-73-8, N-BUTYL-N-(4-HYDR, Dose [Inhibitor]: 0, 50 MG/KG BW IN CORN OIL 3/WK FOR 6 WK BEGINNING POST CARCINOGEN TREATMENT (STUDY DURATION: 28 WK), Route [Inhibitor]: GAVAGE, Strain/Sex: F344/MALE, Target Tissue: Type of Lesion: LARGE INTESTINE: ADENOMA, Dose [Carcinogen]: 100 MG/KG BW DEN ONCE, 20 MG/KG BW MNU ONCE ON D 2, 5, 8 AND 11, 40 MG/KG BW DMH ON D 14, 17, 20 AND 23, 0.05% BHBN I, Dose [Carcinogen]: 100 MG/KG BW DEN ONCE, 20 MG/KG BW MNU ONCE ON D 2, 5, 8 AND 11, 40 MG/KG BW DMH ON D 14, 17, 20 AND 23, 0.05% BHBN I, Promoter: NONE USED) 6/20 (30%), 1/19 (5%), 83%, p<0.01; (Carcinogen: DIETHYLNITROSAMINE, 55-18-5, N-METHYL-N-NITROSOUREA, 684-93-5, N,N'-DIMETHYLHYDRAZINE, 540-73-8, N-BUTYL-N-(4-HYDR, Carcinogen: DIETHYLNITROSAMINE, 55-18-5, N-METHYL-N-NITROSOUREA, 684-93-5, N,N'-DIMETHYLHYDRAZINE, 540-73-8, N-BUTYL-N-(4-HYDR, Dose [Inhibitor]: 0, 50 MG/KG BW IN CORN OIL 3/WK FOR 6 WK BEGINNING POST CARCINOGEN TREATMENT (STUDY DURATION: 28 WK), Route [Inhibitor]: GAVAGE, Strain/Sex: F344/MALE, Target Tissue: Type of Lesion: LARGE INTESTINE: CARCINOMA, Dose [Carcinogen]: 100 MG/KG BW DEN ONCE, 20 MG/KG BW MNU ONCE ON D 2, 5, 8 AND 11, 40 MG/KG BW DMH ON D 14, 17, 20 AND 23, 0.05% BHBN I, Dose [Carcinogen]: 100 MG/KG BW DEN ONCE, 20 MG/KG BW MNU ONCE ON D 2, 5, 8 AND 11, 40 MG/KG BW DMH ON D 14, 17, 20 AND 23, 0.05% BHBN I, Promoter: NONE USED) 8/20 (40%), 3/19 (16%), 60%, not calculated; (Carcinogen: DIETHYLNITROSAMINE, 55-18-5, N-METHYL-NITROSOUREA ;684-93-5, N,N'-DIMETHYLHYDRAZINE, 540-73-8, N-BUTYL-N-(4-HYDROXY, Carcinogen: DIETHYLNITROSAMINE, 55-18-5, N-METHYL-NITROSOUREA ;684-93-5, N,N'-DIMETHYLHYDRAZINE, 540-73-8, N-BUTYL-N-(4-HYDROXY, Dose [Inhibitor]: 0, 50 MG/KG BW IN CORN OIL 3/WK FOR 6 WK BEGINNING POST CARCINOGEN TREATMENT (STUDY DURATION: 28 WK), Route [Inhibitor]: GAVAGE, Strain/Sex: F344/MALE, Target Tissue: Type of Lesion: KIDNEY: NEPHROBLASTOMA, Dose [Carcinogen]: 100 MG/KG BW DEN ONCE, 20 MG/KG BW MNU ONCE ON D 2, 5, 8 AND 11, 40 MG/KG BW DMH ON D 14, 17, 20 AND 23, 0.05% BHBN I, Dose [Carcinogen]: 100 MG/KG BW DEN ONCE, 20 MG/KG BW MNU ONCE ON D 2, 5, 8 AND 11, 40 MG/KG BW DMH ON D 14, 17, 20 AND 23, 0.05% BHBN I, Promoter: NONE USED) 5/20 (25%), 0/19 (0%), 100%, p<0.05. Further, the “tumour outcome (control, treated, inhibition, significance)” value by setting is: (Carcinogen: DIETHYLNITROSAMINE, 55-18-5, N-METHYL-NITROSOUREA, 684-93-5, N,N'-DIMETHYLHYDRAZINE, 540-73-8, N-BUTYL-N-(4-HYDROX, Carcinogen: DIETHYLNITROSAMINE, 55-18-5, N-METHYL-NITROSOUREA, 684-93-5, N,N'-DIMETHYLHYDRAZINE, 540-73-8, N-BUTYL-N-(4-HYDROX, Dose [Inhibitor]: 0, 50 MG/KG BW IN CORN OIL 3/WK FOR 6 WK BEGINNING POST CARCINOGEN TREATMENT (STUDY DURATION: 28 WK), Route [Inhibitor]: GAVAGE, Strain/Sex: F344/MALE, Target Tissue: Type of Lesion: KIDNEY: RENAL CELL CARCINOMA, Dose [Carcinogen]: 100 MG/KG BW DEN ONCE, 20 MG/KG BW MNU ONCE ON D 2, 5, 8 AND 11, 40 MG/KG BW DMH ON D 14, 17, 20 AND 23, 0.05% BHBN I, Dose [Carcinogen]: 100 MG/KG BW DEN ONCE, 20 MG/KG BW MNU ONCE ON D 2, 5, 8 AND 11, 40 MG/KG BW DMH ON D 14, 17, 20 AND 23, 0.05% BHBN I, Promoter: NONE USED) 1/20 (5%), 0/19 (0%), 100%, not calculated; (Carcinogen: N-METHYL-N-NITROSOUREA, 684-93-5, Dose [Inhibitor]: 0, 57 UMOL/KG DIET FOR 25 WK BEGINNING 2 WK PRIOR TO CARCINOGEN DOSE (STUDY DURATION: 25 WK), Route [Inhibitor]: ORAL, Strain/Sex: SPRAGUE-DAWLEY/FEMALE, Target Tissue: Type of Lesion: MAMMARY GLAND: TUMOR, Dose [Carcinogen]: 15 MG/KG BW ONCE, Promoter: NONE USED) 81%, 38%, 53%, p<0.05. Besides, the outcome (Carcinogen: N-methyl-N-nitrosourea (684-93-5), Dose [Inhibitor]: 0, 150 mg/kg bw by gavage 2 x a wk for 16 wks of hormones and MNU, study duration 16 wks, Dose [Inhibitor]: 0, 150 mg/kg bw by gavage 2 x a wk for 16 wks of hormones and MNU, study duration 16 wks, Route [Inhibitor]: Oral, Species: Rat, Strain/Sex: Sprague-Dawley/Male, Target Tissue: Type of Lesion: Prostate: Prostatic intraepithelial neoplasia, Dose [Carcinogen]: 150 mg/kg bw once, Promoter: Cyproterone acetate (427-51-0) and testosterone propionate (57-85-2)) is “dorsolateral prostate: 40% (hormones + mnu); 10% (hormones + mnu + diallyl sulfi”.
